Measured values as given in publication PMC12264794, “Homoleptic complexes of titanium(IV) fused with O^N^O Schiff base derivatives: design, BSA–DNA interaction, molecular docking, DFT and cytotoxicity” (RSC Advances, 2025).

system: CT-DNA; experiment: Agarose gel electrophoresis, CT-DNA cleavage; assay type: biochemical, calf; settings: complex at 3, 1.5 and 0.75 mM
Procedure: The interaction and effectiveness of the Ti(IV) complex on CT-DNA were investigated using the agarose gel electrophoresis technique. This was accomplished by incubating the reaction mixtures separately, each of which contained 20 μL of CT-DNA and 20 μL of titanium complexes in PBS buffer solution, at 310 K for one hour. The tracking […] dye (1 μL) and all of the prepared solutions (5 μL) were then combined and applied to the wells of a 1% agarose gel containing 1 mM ethidium bromide that was prepared well in advance. Then the reaction mixture of complexes and CT-DNA was loaded in the wells separately using 0.25% […] dye. The electrophoresis mobility experiment was then carried out in an EDTA-PBS buffer for 60 minutes at a constant electrical voltage of 100 V until the dye reached 50% of the gel distribution area. In order to evaluate the degree of DNA binding capacity of the Ti(IV) complexes, the resultant bands were finally captured on a camera using the AXYGEN digital camera Gel Documentation System under UV light.[49–51]
There are two types of cleavage of nucleic acid chains: enzymatic and non-enzymatic. Either the oxidative cleavage of deoxyribose residues or the hydrolysis of phosphodiester links, known as hydrolytic cleavage, can result in non-enzymatic cleavage. Strong Lewis acidic metal complexes with transition metals are the main source of hydrolytic cleavage. The hydrolysis of the phosphate backbone of the nucleic acid is facilitated by a metal–phosphate intermediate. In order to understand the catalytic mechanisms of natural nucleases and to develop medications that target nucleic acids, it is crucial to design and synthesize metal complexes that can hydrolytically cleave the phosphodiester link. Agarose gel electrophoresis was used to test the capacity of the complex to cleave CT-DNA.

Compound | DNA cleavage activity
[O-]C(=NN=Cc1cc(F)ccc1[O-])c1ccncc1.[O-]C(=NN=Cc1cc(F)ccc1[O-])c1ccncc1.[Ti+4] [Ti-4-IF] | higher DNA cleavage even at the lowest concentration
[O-]C(=NN=Cc1c([O-])ccc2ccccc12)c1ccncc1.[O-]C(=NN=Cc1c([O-])ccc2ccccc12)c1ccncc1.[Ti+4] [Ti-2-IN] | less cleavage activity
Brc1ccc2c(c1)C=NN=C(c1ccncc1)[O][Ti]1([O]C(c3ccncc3)=NN=Cc3cc(Br)ccc3[O]1)[O]2 (centres unmarked) [Ti-6-IBr] | comparatively higher DNA binding cleavage in higher concentration
[O-]C(=NN=Cc1ccccc1[O-])c1ccncc1.[O-]C(=NN=Cc1ccccc1[O-])c1ccncc1.[Ti+4] [Ti-1-IS] | less cleavage activity
COc1cccc(C=NN=C([O-])c2ccncc2)c1[O-].COc1cccc(C=NN=C([O-])c2ccncc2)c1[O-].[Ti+4] [Ti-3-IO] | higher DNA cleavage even at the lowest concentration
[O-]C(=NN=Cc1cc(Cl)ccc1[O-])c1ccncc1.[O-]C(=NN=Cc1cc(Cl)ccc1[O-])c1ccncc1.[Ti+4] [Ti-5-ICl] | comparatively higher DNA binding cleavage in higher concentration

target: T1, BSA (Bos taurus, UniProt P02769); experiment: BSA fluorescence quenching titration; assay type: binding, bovine; settings: not given
T1 construct: purchased Himedia Chemicals
T1 sequence (P02769 25-607): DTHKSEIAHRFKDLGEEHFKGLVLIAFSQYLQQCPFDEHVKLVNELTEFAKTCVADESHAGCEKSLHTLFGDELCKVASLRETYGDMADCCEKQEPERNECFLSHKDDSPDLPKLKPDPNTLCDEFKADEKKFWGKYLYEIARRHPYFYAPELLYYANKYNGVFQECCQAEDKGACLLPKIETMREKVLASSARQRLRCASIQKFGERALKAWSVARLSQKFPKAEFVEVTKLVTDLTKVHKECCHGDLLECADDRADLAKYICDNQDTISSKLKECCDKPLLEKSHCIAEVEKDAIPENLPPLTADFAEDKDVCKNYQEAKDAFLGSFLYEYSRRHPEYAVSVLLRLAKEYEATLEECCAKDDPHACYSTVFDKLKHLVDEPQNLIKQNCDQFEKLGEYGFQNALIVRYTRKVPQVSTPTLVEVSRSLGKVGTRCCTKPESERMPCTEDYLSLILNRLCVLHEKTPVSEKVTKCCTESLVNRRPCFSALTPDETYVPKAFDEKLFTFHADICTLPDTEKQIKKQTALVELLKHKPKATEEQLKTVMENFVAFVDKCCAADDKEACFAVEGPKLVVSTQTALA
Procedure: BSA stock solution (5 mM) was prepared in 5 mM phosphate buffer (pH 7.4) and then kept at 2–6 °C. The binding mechanism of the Ti(IV) complexes with BSA was established using fluorescence titration at 200–500 nm. Metal complexes with BSA were quenched by tracking changes in the fluorescence intensity at a certain excitation wavelength of 285 nm and emission value at 345 nm, respectively.[52] Identical excitation and emission scan rates and slit widths were employed in all investigations. In order to titrate against different metal complex concentrations ranging from 0 to 80 μM, a constant protein concentration of BSA was used. Similarly, the synchronous fluorescence spectra were also acquired by titrating different metal complex concentrations ranging from 0 to 80 μM while maintaining a constant BSA at the specified excitation wavelengths, λ = 15 nm and 60 nm.[53,54]
Ti(IV) complexes of (1 × 10^−5 M) concentration were gradually added, ranging from 0 to 72 μM to bind with BSA (3 × 10^−6 M) of fixed concentration in PBS buffer of pH 7.4. […] This phenomenon might be caused by modifications to the secondary or tertiary structures of BSA, which could have an impact on the tryptophan residues of the BSA microenvironment. Typically, the Stern–Volmer eqn (8) can be used to characterize fluorescence quenching.8 I0/I = 1+KBSA[Q] = 1 + kqτ0[Q]where τ0 is the lifetime of the tryptophan in BSA, which is determined to be 1 × 10^−8, kq is the quenching constant, I0 is the fluorescence intensity of BSA in the absence of complex and I denotes the fluorescence intensities of BSA in the presence of a complex of concentration [Q]. The quenching rate constant, dynamic quenching constant, average lifetime without quencher, and quencher concentration of the biomolecule are represented by the values of kq, KBSA, τ0 and [Q], respectively.
The binding constant (Kb) and the number of binding sites (n) for the static quenching interaction can be determined using the Scatchard eqn (9),9 Log(I0 − I/I) = log K + n log[Q]where I0 and I are the fluorescence intensities of BSA with and without quenchers (complexes). Fig. 7(c), Table 3 and ESI Fig. S70 ^† display the double logarithmic plot of log[I0 − I/I] vs. log[complex].

Compound | KBSA | Kb binding constant (BSA)
COc1cccc(C=NN=C([O-])c2ccncc2)c1[O-].COc1cccc(C=NN=C([O-])c2ccncc2)c1[O-].[Ti+4] [Ti-3-IO] | 277000 M⁻¹ | –
[O-]C(=NN=Cc1cc(Cl)ccc1[O-])c1ccncc1.[O-]C(=NN=Cc1cc(Cl)ccc1[O-])c1ccncc1.[Ti+4] [Ti-5-ICl] | – | 650 M⁻¹

same assay, conditions: BSA 3 × 10^−6 M, PBS pH 7.4

Compound | KBSA, Stern–Volmer quenching constant
[O-]C(=NN=Cc1cc(F)ccc1[O-])c1ccncc1.[O-]C(=NN=Cc1cc(F)ccc1[O-])c1ccncc1.[Ti+4] [Ti-4-IF] | 197000 M⁻¹
[O-]C(=NN=Cc1c([O-])ccc2ccccc12)c1ccncc1.[O-]C(=NN=Cc1c([O-])ccc2ccccc12)c1ccncc1.[Ti+4] [Ti-2-IN] | 105000 M⁻¹
Brc1ccc2c(c1)C=NN=C(c1ccncc1)[O][Ti]1([O]C(c3ccncc3)=NN=Cc3cc(Br)ccc3[O]1)[O]2 (centres unmarked) [Ti-6-IBr] | 85000 M⁻¹
[O-]C(=NN=Cc1ccccc1[O-])c1ccncc1.[O-]C(=NN=Cc1ccccc1[O-])c1ccncc1.[Ti+4] [Ti-1-IS] | 175000 M⁻¹
COc1cccc(C=NN=C([O-])c2ccncc2)c1[O-].COc1cccc(C=NN=C([O-])c2ccncc2)c1[O-].[Ti+4] [Ti-3-IO] | 277000 M⁻¹
[O-]C(=NN=Cc1cc(Cl)ccc1[O-])c1ccncc1.[O-]C(=NN=Cc1cc(Cl)ccc1[O-])c1ccncc1.[Ti+4] [Ti-5-ICl] | 112000 M⁻¹

same assay, conditions: Scatchard plot, 298 K

Compound | n, number of binding sites (BSA)
[O-]C(=NN=Cc1cc(F)ccc1[O-])c1ccncc1.[O-]C(=NN=Cc1cc(F)ccc1[O-])c1ccncc1.[Ti+4] [Ti-4-IF] | 1.60
[O-]C(=NN=Cc1c([O-])ccc2ccccc12)c1ccncc1.[O-]C(=NN=Cc1c([O-])ccc2ccccc12)c1ccncc1.[Ti+4] [Ti-2-IN] | 1.26
Brc1ccc2c(c1)C=NN=C(c1ccncc1)[O][Ti]1([O]C(c3ccncc3)=NN=Cc3cc(Br)ccc3[O]1)[O]2 (centres unmarked) [Ti-6-IBr] | 1.35
[O-]C(=NN=Cc1ccccc1[O-])c1ccncc1.[O-]C(=NN=Cc1ccccc1[O-])c1ccncc1.[Ti+4] [Ti-1-IS] | 1.31
COc1cccc(C=NN=C([O-])c2ccncc2)c1[O-].COc1cccc(C=NN=C([O-])c2ccncc2)c1[O-].[Ti+4] [Ti-3-IO] | 1.42
[O-]C(=NN=Cc1cc(Cl)ccc1[O-])c1ccncc1.[O-]C(=NN=Cc1cc(Cl)ccc1[O-])c1ccncc1.[Ti+4] [Ti-5-ICl] | 1.07

same assay, conditions: Scatchard plot, 298 K, no site probe

Compound | Kb binding constant (BSA)
[O-]C(=NN=Cc1cc(F)ccc1[O-])c1ccncc1.[O-]C(=NN=Cc1cc(F)ccc1[O-])c1ccncc1.[Ti+4] [Ti-4-IF] | 110 M⁻¹
[O-]C(=NN=Cc1c([O-])ccc2ccccc12)c1ccncc1.[O-]C(=NN=Cc1c([O-])ccc2ccccc12)c1ccncc1.[Ti+4] [Ti-2-IN] | 470 M⁻¹
Brc1ccc2c(c1)C=NN=C(c1ccncc1)[O][Ti]1([O]C(c3ccncc3)=NN=Cc3cc(Br)ccc3[O]1)[O]2 (centres unmarked) [Ti-6-IBr] | 140 M⁻¹
[O-]C(=NN=Cc1ccccc1[O-])c1ccncc1.[O-]C(=NN=Cc1ccccc1[O-])c1ccncc1.[Ti+4] [Ti-1-IS] | 400 M⁻¹
COc1cccc(C=NN=C([O-])c2ccncc2)c1[O-].COc1cccc(C=NN=C([O-])c2ccncc2)c1[O-].[Ti+4] [Ti-3-IO] | 360 M⁻¹
[O-]C(=NN=Cc1cc(Cl)ccc1[O-])c1ccncc1.[O-]C(=NN=Cc1cc(Cl)ccc1[O-])c1ccncc1.[Ti+4] [Ti-5-ICl] | 650 M⁻¹

same assay, conditions: τ0 = 1 × 10^−8

Compound | Kq, quenching rate constant
[O-]C(=NN=Cc1cc(F)ccc1[O-])c1ccncc1.[O-]C(=NN=Cc1cc(F)ccc1[O-])c1ccncc1.[Ti+4] [Ti-4-IF] | 1.97e+13 M⁻¹ s⁻¹
[O-]C(=NN=Cc1c([O-])ccc2ccccc12)c1ccncc1.[O-]C(=NN=Cc1c([O-])ccc2ccccc12)c1ccncc1.[Ti+4] [Ti-2-IN] | 1.05e+13 M⁻¹ s⁻¹
Brc1ccc2c(c1)C=NN=C(c1ccncc1)[O][Ti]1([O]C(c3ccncc3)=NN=Cc3cc(Br)ccc3[O]1)[O]2 (centres unmarked) [Ti-6-IBr] | 8.5e+12 M⁻¹ s⁻¹
[O-]C(=NN=Cc1ccccc1[O-])c1ccncc1.[O-]C(=NN=Cc1ccccc1[O-])c1ccncc1.[Ti+4] [Ti-1-IS] | 1.75e+13 M⁻¹ s⁻¹
COc1cccc(C=NN=C([O-])c2ccncc2)c1[O-].COc1cccc(C=NN=C([O-])c2ccncc2)c1[O-].[Ti+4] [Ti-3-IO] | 2.77e+13 M⁻¹ s⁻¹
[O-]C(=NN=Cc1cc(Cl)ccc1[O-])c1ccncc1.[O-]C(=NN=Cc1cc(Cl)ccc1[O-])c1ccncc1.[Ti+4] [Ti-5-ICl] | 1.12e+13 M⁻¹ s⁻¹

system: MCF7 cells; experiment: MTT cytotoxicity assay, MCF7; assay type: cell-based, human; settings: 48 h of drug exposure
Procedure: The in vitro cytotoxicity of the Ti(IV) complexes under investigation was investigated using MTT, a micro-titration colorimetric method. The in vitro cytotoxicity test of the Ti(IV) complexes was evaluated against the cervical cancer cell line (HeLa), human breast cancer cell line (MCF-7) and human kidney normal cell line (HEK-293).[65,66]
In the cytotoxicity assay, tetrazolium salt 3-[4,5-dimethylthiazol-2-yl]-2,5diphenyl tetrazolium bromide (MTT) was utilized to assess cell viability. The MTT powder was diluted in Dulbecco's PBS (stock solution of MTT (5 mg mL^−1)) to attain a final concentration of 0.5 mg mL^−1 and a […] was used to filter and sterilize the stock solution, which was then kept at 2–6 °C. In metabolically active cells, MTT is reduced to produce an insoluble purple formazan product. In the exponential phase, cells were taken out of the stored cultures after the 48-hour recovery period, following seeding onto 96-well plates at a density of 1 × 10^4 cells per well in 100 μL medium at 37 °C in a 95% air and 5% CO2 environment, and the cells were incubated for 12 hours. Cell lines were treated for 48 hours with Ti(IV) complexes at varying doses (9.5–300 μM) and cis-platin as a control (apart from normal cells). After 48 hours of incubation at 37 °C, the medium was removed and 100 μL of DMSO was added to dissolve the […], and the culture plates were shaken for five minutes. A Bio-Rad xMARK™ multi-well plate reader was used to measure the absorbance of each well at 570 nm. Using eqn (2), the percentage viability, which represents the relative viability of the treated cells in comparison to the control cells, was calculated, and the IC50 values and standard deviation of the substances under investigation were calculated in triplicate.2 [drawing 2]
An MTT assay was used to examine the cytotoxic effectiveness of the produced Ti(IV) complexes. After 48 hours of incubation, the cytotoxicity of Ti-1-IS to Ti-6-IBr was evaluated against human cancer cell lines, such as breast carcinoma (MCF7) and cervical cancer (HeLa), as well as the non-cancerous human embryonic kidney (HEK) cell line, by using the widely used therapeutic drug, cis-platin, as a positive control by following the standard protocol.

Compound | IC50
[O-]C(=NN=Cc1cc(F)ccc1[O-])c1ccncc1.[O-]C(=NN=Cc1cc(F)ccc1[O-])c1ccncc1.[Ti+4] [Ti-4-IF] | 109.8 ± 0.2 µM
[O-]C(=NN=Cc1c([O-])ccc2ccccc12)c1ccncc1.[O-]C(=NN=Cc1c([O-])ccc2ccccc12)c1ccncc1.[Ti+4] [Ti-2-IN] | 85.04 ± 0.5 µM
Brc1ccc2c(c1)C=NN=C(c1ccncc1)[O][Ti]1([O]C(c3ccncc3)=NN=Cc3cc(Br)ccc3[O]1)[O]2 (centres unmarked) [Ti-6-IBr] | 84.67 ± 0.5 µM
[O-]C(=NN=Cc1ccccc1[O-])c1ccncc1.[O-]C(=NN=Cc1ccccc1[O-])c1ccncc1.[Ti+4] [Ti-1-IS] | 109.22 ± 0.1 µM
COc1cccc(C=NN=C([O-])c2ccncc2)c1[O-].COc1cccc(C=NN=C([O-])c2ccncc2)c1[O-].[Ti+4] [Ti-3-IO] | 102.9 ± 0.3 µM
[O-]C(=NN=Cc1cc(Cl)ccc1[O-])c1ccncc1.[O-]C(=NN=Cc1cc(Cl)ccc1[O-])c1ccncc1.[Ti+4] [Ti-5-ICl] | 65.2 ± 1.2 µM

system: not listed separately; experiment: n-Octanol/water partition coefficient, shake flask method; assay type: physicochemical; settings: partition coefficient of n-octanol/water
Procedure: Drugs were measured for oral bioavailability and cellular accumulation using their lipophilicity. This can be stated as the log P value of the n-octanol/water partition coefficient, which is an essential prerequisite for many in silico medicinal chemistry approaches. The n-octanol/water partition coefficient (log Po/w), where Po/w = the octanol/water partition coefficient, was analyzed using the shake flask method. The experimental log Po/w values of these complexes were discovered to be between 0.12 and 0.87 (ESI Fig. S60 ^† and Table 1).

Compound | Log Po/w
[O-]C(=NN=Cc1cc(F)ccc1[O-])c1ccncc1.[O-]C(=NN=Cc1cc(F)ccc1[O-])c1ccncc1.[Ti+4] [Ti-4-IF] | 0.12
[O-]C(=NN=Cc1c([O-])ccc2ccccc12)c1ccncc1.[O-]C(=NN=Cc1c([O-])ccc2ccccc12)c1ccncc1.[Ti+4] [Ti-2-IN] | 0.78
Brc1ccc2c(c1)C=NN=C(c1ccncc1)[O][Ti]1([O]C(c3ccncc3)=NN=Cc3cc(Br)ccc3[O]1)[O]2 (centres unmarked) [Ti-6-IBr] | 0.15
[O-]C(=NN=Cc1ccccc1[O-])c1ccncc1.[O-]C(=NN=Cc1ccccc1[O-])c1ccncc1.[Ti+4] [Ti-1-IS] | 0.87
COc1cccc(C=NN=C([O-])c2ccncc2)c1[O-].COc1cccc(C=NN=C([O-])c2ccncc2)c1[O-].[Ti+4] [Ti-3-IO] | 0.13
[O-]C(=NN=Cc1cc(Cl)ccc1[O-])c1ccncc1.[O-]C(=NN=Cc1cc(Cl)ccc1[O-])c1ccncc1.[Ti+4] [Ti-5-ICl] | 0.31
